Earlier results in patent US20100056493A1, “MODIFIED RELEASE PHARMACEUTICAL COMPOSITION AND A PROCESS OF MAKING THE SAME” (priority 2007, published 2010).

Tests used:
[1] = test system: de novo kidney allograft recipients; conditions: P=NS
[2] = given in brackets after the drug name; no method stated
[3] = 720 mg mycophenolic acid as mycophenolate sodium twice daily or 1000 mg MMF twice daily

COc1c(C)c2c(c(O)c1C/C=C(\C)CCC(=O)OCCN1CCOCC1)C(=O)OC2 [MMF, mycophenolate mofetil]
frequency of dosage reductions, discontinuation, or temporary interruptions of therapy secondary to GI toxicities [1, 3]: 17.6% | incidence of GI adverse events [1, 3]: 78.1% | overall incidence of efficacy failure (biopsy-proven acute rejection, graft loss, death, or loss to follow-up) ([1]; at 6 months, 720 mg mycophenolic acid as mycophenolate sodium twice daily (n=213) or 1000 mg MMF twice daily (n=210)): 28.1% | BPAR rates ([1]; at 12 months, 720 mg mycophenolic acid as mycophenolate sodium twice daily or 1000 mg MMF twice daily): 24.3% | pH [2]: 7.2

O=C(O)/C=C/C(=O)O.OCCOCCN1CCN(C2=Nc3ccccc3Sc3ccccc32)CC1 [Quetiapine fumarate, 2-[2-(4-dibenzo[b,f][1,4]thiazepin-11-yl-1-piperazinyl)ethoxy]-ethanol fumarate]
pH [2]: 5.4

COc1c(C)c2c(c(O)c1C/C=C(\C)CCC(=O)O)C(=O)OC2 [mycophenolate sodium]
frequency of dosage reductions, discontinuation, or temporary interruptions of therapy secondary to GI toxicities [1, 3]: 13.1% | incidence of GI adverse events [1, 3]: 78.4%
